Assay results taken from patent US11033537B2, “LPT-723 and immune checkpoint inhibitor combinations and methods of treatment” (BIOMED VALLEY DISCOVERIES, INC., priority 2015, dated 2021).

Experiments:
[1] = tested on: A20 murine syngeneic B cell lymphoma; assay: A20 lymphoma syngeneic model; assay type: in vivo, BALB/c mice; settings: Day 15; LPT-723 30 mpk p.o. bid; anti-PD-1 10 mpk i.p. twice a week
Protocol: BALB/c mice bearing A20 murine syngeneic B cell lymphoma were treated with control (vehicle), anti-PD-1 (clone RMP1-14), LPT-723 and anti-PD-1/LPT-723 combination. Treatment was initiated when tumor volume reached approximately 80-120 mm^3. Anti-PD-1 was dosed i.p. twice a week for three weeks at 10 mpk. LPT-723 was dosed p.o. twice a day at 30 mpk. […] No significant changes in body weights were noted.

[2] = Monkey cardiovascular (CV) study; assay type: in vivo; settings: 25 and 40 mg/kg oral gavage, male monkeys, cross-over
Pan02 cells = assay: In vitro cell viability assay (CellTiter-Glo), Pan02; assay type: cell-based, murine; settings: Mus musculus
Description: No significant changes in body weights were noted.

A20 cells = assay: In vitro cell viability assay, A20; assay type: cell-based, murine; settings: Mus musculus
[3] = Rat 28-day GLP toxicity study; assay type: in vivo, CD [Crl:CD (SD)] rats
Protocol: Vehicle and Test Article Preparation: The vehicle, 2% TPGS/1.5% HPMCAS-HF/1.5% PVP-VA with 50 mM pH 5.0 sodium citrate in deionized water, was prepared for use weekly and was stored at room temperature when not in use. A correction factor of 4 was used to adjust for purity when preparing the LPT-723 formulations. Appropriate amounts of the LPT-723 were mixed with the vehicle to achieve nominal concentrations of 0.3, 0.6, and 1.2 mg/mL. Formulations of the LPT-723 were prepared daily, stored at room temperature, protected from light, and were dosed within 4 hours of preparation.
Animal Acquisition and Acclimation: A total of 98 male and 98 female CD® [Crl:CD® (SD)] rats (approximately 6 to 7 weeks of age at receipt) were received from Charles River Laboratories, Portage, Mich. During the 10-day acclimation period, the animals were observed daily with respect to general health and any signs of disease. All animals were given a detailed clinical examination prior to selection for study. The animals were administered a sham dose of tap water on two occasions in the same manner and dose volume intended for use on study.
Randomization, Assignment to Study, and Maintenance: Using a standard, by weight, measured value randomization procedure, 85 male and 85 female animals (weighing 228 to 283 g and 170 to 218 g, respectively, at randomization) were assigned to the control and treatment groups identified in the following table.
Vehicle and LPT-723 Administration: Vehicle and LPT-723 were administered once daily for 22 days for main study animals at 12 mg/kg/day, for 23 days for TK animals at 12 mg/kg/day, and for 28 days for all animals at 0, 3, and 6 mg/kg/day. The animals were dosed via oral gavage at a dose volume of 10 mL/kg. The control group received the vehicle in the same manner as the treated groups. The vehicle and test article were dosed from stirred formulations at approximately the same time each day (±2 hours) based on the first animal dosed each day. Individual doses were based on the most recent body weights.

[4] = Monkey 7-day dose range finding study; assay type: in vivo
Protocol: Preparation of the Control/Vehicle Item: The control/vehicle item (2% TPGS/1.5% HPMCAS-HF/1.5% PVP-VA with 50 mM sodium citrate buffer pH 5.0) was prepared 3 days prior to the start of dosing and was stored at room temperature, away from direct light for the duration of the study. The instructions below were for the preparation of a final volume of 2.5 L. These instructions were scaled as needed.
500 mL of 10% Vitamin E-TPGS were added to an appropriate sized container and stirring was initiated. 750 mL of 5% HPMCAS-HF/5% PVP-VA were added to the same container and stirred at medium speed for 30 minutes to ensure proper mixing. 1 L of deionized water was added and stirring was continued for 30 minutes. 125 mL of 1M sodium citrate buffer and 125 mL of deionized water were added with stirring. The final vehicle was stirred at medium speed for 1 hour. The vehicle was a hazy solution and was stored at room temperature, away from direct light for the duration of the study.
Experimental Design: The test and control/vehicle items were administered once daily for 7 consecutive days by oral gavage as described in Table 6 below. The dose volume administered to each animal was 5 mL/kg. One day after the end of dosing, the Main animals were euthanized and subjected to a necropsy examination on Day 8.

[5] = tested on: Salmonella typhimurium TA98 and TA100; assay: 2-Strain Ames test; settings: 1.5 to 5000 μg per plate, with and without rat liver S9
Description: Test System: The two tester strains used were the Salmonella typhimurium histidine auxotrophs TA98 and TA100 as described by Ames et al. (1975). Tester strain TA98 is reverted from auxotrophy to prototrophy by frameshift mutagens while tester strain TA100 is reverted by mutagens that cause both frameshift and base pair substitution mutations.
Experimental Design: The test system was exposed to LPT-723 via the plate incorporation methodology originally described by McCann et al. (1975) and updated by Maron and Ames (1983). Briefly, LPT-723 was tested at eight dose levels along with appropriate vehicle control and positive controls. Overnight cultures of tester strains TA98 and TA100 were plated on selective minimal agar in the presence and absence of Aroclor-induced rat liver S9. […]
Plating and Scoring Procedures: LPT-723 dilutions were prepared immediately before use and delivered to the test system at room temperature under yellow light. […] Plates were counted immediately following the incubation period or were stored at 2-8° C. until colony counting could be conducted.
The condition of the bacterial background lawn was evaluated for evidence of LPT-723 toxicity using a dissecting microscope. Precipitate was evaluated by visual examination without magnification. […] Plates with sufficient LPT-723 precipitate to interfere with automated colony counting were counted manually. […]

Question: Which results are given for Cc1cc(-c2cncc(C(O)C(F)(F)F)c2)nc2c1C(=O)N(c1cnn(CC(F)F)c1)C2(C)C (stereo not shown) [LPT-723]?
Answer: decrease in median tumor volume [1]: 43%; toxicological observations [2]: no significant toxicological observations; IC50 (Pan02 cells): 26.6 µM; IC50 (A20 cells): 84.1 µM; therapeutic index [3]: < 4; tolerability [3]: poorly tolerated; NOAEL ([3]; both sexes, CD [Crl:CD (SD)], in vivo, oral gavage once daily, 3, 6, 12 mg/kg/day, read-out: no observed adverse effect level (NOAEL)): < 3 mg/kg; circulating neutrophils ([3]; clinical chemistry): large increase in circulating neutrophils; tissue findings ([3]; particularly gastrointestinal tract): inflammatory state in multiple organs; highest dose versus maximum tolerated dose ([4]; monkey, 40 mg/kg/day oral, 7 days): exceeded the maximum tolerated dose (MTD); lymphocyte counts ([4]; monkey, 15, 25, 40 mg/kg/day, 7 days): dose-related decrease in lymphocyte counts; expected therapeutic index ([4]; monkey, with lower doses): approximately 5; toxicity (Ames plate incorporation) [5]: No toxicity was observed
